This is an account of results in patent publication US9447100B2, “Substituted pyrazolo[1,5-A] pyrimidines as calcium receptor modulating agents” (Takeda Pharmaceutical Company Limited, priority 2002, dated 2016).

The melting point is the temperature, or range, at which the solid turns liquid.

Molecules are shown by their SMILES. Counter-ions that a name gives are not always drawn.

`CCC(CC)(NC(=O)c1c(C)nn2c1N[C@H](c1ccccc1Cl)CC2(C)C)c1ccc(C)cc1` (as salt: HCl) [Example 1090, (5S)-5-(2-chlorophenyl)-N-(1-ethyl-1-(4-methylphenyl)propyl)-2,7,7-trimethyl-4,5,6,7-tetrahydropyrazolo[1,5-a]pyrimidine-3-carboxamide]: the melting point was 173 to 174 °C. With `CCC1(CC)C[C@H](OC)CN1C(=O)c1cnn2c1N[C@@H](c1ccccc1)CC2(C)C` [Example 1113, (5R)-3-(((4S)-2,2-diethyl-4-methoxy-1-pyrrolidinyl)carbonyl)-7,7-dimethyl-5-phenyl-4,5,6,7-tetrahydropyrazolo[1,5-a]pyrimidine], the melting point fell in the range of 122 to 124 °C. For `CCC(CC)(NC(=O)c1c(C)nn2c1NC(c1ccccc1F)CC2(C)C)c1ccc(N(C)C)cc1` (stereo not shown) (as salt: HCl) [Example 969, N-(1-(4-(dimethylamino)phenyl)-1-ethylpropyl)-5-(2-fluorophenyl)-2,7,7-trimethyl-4,5,6,7-tetrahydropyrazolo[1,5-a]pyrimidine-3-carboxamide] the value was 152 to 153 °C. Take `O=C(O)c1cnn2c1NC(c1ccccc1)C1CCCCC12` (stereo not shown) [Example 39, 5-phenyl-4,5,5a,6,7,8,9,9a-octahydropyrazolo[1,5-a]quinazoline-3-carboxylic acid]: the melting point fell in the range of 158 to 160 °C. For `COc1ccccc1C1CC(C)(C)n2nc(C)c(C(=O)O)c2N1` (stereo not shown) [Example 944, 5-(2-methoxyphenyl)-2,7,7-trimethyl-4,5,6,7-tetrahydropyrazolo[1,5-a]pyrimidine-3-carboxylic acid], the melting point lay within 198 to 199 °C. `CCCCOC(=O)CCCOc1ccc(C(CC)(CC)NC(=O)c2cnn3c2NC(c2ccccc2)CC3(C)C)cc1` (stereo not shown) [Example 818, butyl 4-(4-(1-(((7,7-dimethyl-5-phenyl-4,5,6,7-tetrahydropyrazolo[1,5-a]pyrimidin-3-yl)carbonyl)amino)-1-ethyl-propyl)phenoxy)butanoate] showed a melting point of 133 to 134 °C.

With `O=C(NC12CC3CC(CC(C3)C1)C2)c1cnn2c1NC(c1ccccc1Cl)CC2C(F)(F)F` (stereo not shown) [Example 281, N-(1-adamantyl)-5-(2-chlorophenyl)-7-(trifluoromethyl)-4,5,6,7-tetrahydropyrazolo[1,5-a]pyrimidine-3-carboxamide], the melting point lay within 256 to 257 °C. As for `CCC(CC)(NC(=O)c1c(C)nn2c1NC(c1ccc(F)cc1)CC2(C)C)c1ccc(C)cc1` (stereo not shown) (as salt: HCl) [Example 971, N-(1-ethyl-1-(4-methylphenyl)propyl)-5-(4-fluorophenyl)-2,7,7-trimethyl-4,5,6,7-tetrahydropyrazolo[1,5-a]pyrimidine-3-carboxamide], the melting point lay in the range of 166 to 169 °C. `C=Cc1ccc(C(CC)(CC)NC(=O)c2cnn3c2NC(c2ccccc2)CC3(C)C)cc1` (stereo not shown) [Example 645, N-(1-ethyl-1-(4-vinylphenyl)propyl)-7,7-dimethyl-5-phenyl-4,5,6,7-tetrahydropyrazolo[1,5-a]pyrimidine-3-carboxamide]: the melting point was in the range of 155 to 156 °C. For `CCC1(CC)C[C@@H](OCc2ccccc2)CN1C(=O)c1cnn2c1N[C@H](c1ccccc1)CC2(C)C` [Example 1105, (5S)-3-(((4R)-4-(benzyloxy)-2,2-diethyl-1-pyrrolidinyl)carbonyl)-7,7-dimethyl-5-phenyl-4,5,6,7-tetrahydropyrazolo[1,5-a]pyrimidine], the melting point lay within 172 to 174 °C. For the compound `CCC(CC)(NC(=O)c1cnn2c1N[C@@H](c1ccccc1)CC2(C)C)c1ccc(C(C)(C)C)cc1` (as salt: HCl) [Example 1052, (5R)-N-(1-(4-tert-butylphenyl)-1-ethylpropyl)-7,7-dimethyl-5-phenyl-4,5,6,7-tetrahydropyrazolo[1,5-a]pyrimidine-3-carboxamide], the melting point was 139 to 140 °C.

`CCC(CC)(NC(=O)c1cnn2c1NC(c1ccccc1)CC2(C)C)c1ccc(SC)cc1` (stereo not shown) [Example 832, N-(1-ethyl-1-(4-(methylthio)phenyl)propyl)-7,7-dimethyl-5-phenyl-4,5,6,7-tetrahydropyrazolo[1,5-a]pyrimidine-3-carboxamide] registered a melting point of 177 to 178 °C. Take `CCC(CC)(NC(=O)c1cnn2c1NC(c1ccc(F)cc1F)CC2(C)C)c1ccc(C(F)(F)F)cc1` (stereo not shown) [Example 694, 5-(2,4-difluorophenyl)-N-(1-ethyl-1-(4-(trifluoro-methyl)phenyl)propyl)-7,7-dimethyl-4,5,6,7-tetrahydropyrazolo[1,5-a]pyrimidine-3-carboxamide]: the melting point lay in the range of 198 to 199 °C.

Turning to `CCC(CC)(NC(=O)c1cnn2c1N[C@@H](c1ccccc1)CC2(C)C)c1ccc(CO)cc1` (as salt: HCl) [Example 1077, (5R)-N-(1-ethyl-1-(4-(hydroxymethyl)phenyl)propyl)-7,7-dimethyl-5-phenyl-4,5,6,7-tetrahydropyrazolo[1,5-a]pyrimidine-3-carboxamide], the melting point was in the range of 159 to 160 °C. Take `CC(NC(=O)c1cnn2c1NC(c1ccc3ccccc3c1)CC2C(F)(F)F)C1C2CC3CC(C2)CC1C3` (stereo not shown) [Example 91, N-(1-(2-adamantyl)ethyl)-5-(2-naphthyl)-7-(trifluoromethyl)-4,5,6,7-tetrahydropyrazolo[1,5-a]pyrimidine-3-carboxamide]: the melting point was 94 to 95 °C. On to `O=C(c1cnn2c1NC(c1ccccc1)CC2C(F)(F)F)N1CCN(C(c2ccccc2)c2ccccc2)CC1` (stereo not shown) [Example 274, 3-((4-benzhydryl-1-piperazinyl)carbonyl)-5-phenyl-7-(trifluoromethyl)-4,5,6,7-tetrahydropyrazolo[1,5-a]pyrimidine], for which the melting point was in the range of 181 to 182 °C. `CCC1(CC)C[C@@H](O)CN1C(=O)c1c(C)nn2c1N[C@@H](c1ccccc1)CC2(C)C` [Example 1097, (3R)-5,5-diethyl-1-(((5R)-2,7,7-trimethyl-5-phenyl-4,5,6,7-tetrahydropyrazolo[1,5-a]pyrimidin-3-yl)carbonyl)-3-pyrrolidinol]: the melting point lay within 162 to 164 °C.

`CCCC(CC)(CC)NC(=O)c1cnn2c1NC(c1ccccc1)CC2(C)C` (stereo not shown) [Example 646, N-(1,1-diethylbutyl)-7,7-dimethyl-5-phenyl-4,5,6,7-tetrahydropyrazolo[1,5-a]pyrimidine-3-carboxamide] gave a melting point of 76 to 77 °C. `CCOC(=O)c1ccc(C(CC)(CC)NC(=O)c2c(C)nn3c2NC(c2ccccc2)CC3(C)C)cc1` (stereo not shown) [Example 954, ethyl 4-(1-ethyl-1-(((2,7,7-trimethyl-5-phenyl-4,5,6,7-tetrahydropyrazolo[1,5-a]pyrimidin-3-yl)carbonyl)amino)propyl) benzoate] displayed a melting point of 152 to 153 °C. Compound `CC(C)[C@H]1CC[C@H](C)CC1OC(=O)c1cnn2c1NC(c1ccccc1)CC2(C)C` (stereo partly drawn) [Example 1140, (2R,5S)-2-isopropyl-5-methylcyclohexyl 7,7-dimethyl-5-phenyl-4,5,6,7-tetrahydropyrazolo[1,5-a]pyrimidine-3-carboxylate] returned a melting point of 123 to 124 °C. For the compound `Cc1nn2c(c1C(=O)NC13CC4CC(CC(C4)C1)C3)NC(c1ccccc1)CC2C(F)(F)F` (stereo not shown) [Example 42], the melting point fell in the range of 162 to 163 °C. Take `CCC(CC)(NC(=O)c1cnn2c1NC(c1ccccc1)CC2(C)C)c1ccc(-c2ccc(OC)nc2)cc1` (stereo not shown) [Example 677, N-(1-ethyl-1-(4-(6-methoxy-3-pyridinyl)phenyl)propyl)-7,7-dimethyl-5-phenyl-4,5,6,7-tetrahydropyrazolo[1,5-a]pyrimidine-3-carboxamide]: the melting point fell in the range of 172 to 173 °C. Then `Cc1nn2c(c1C(=O)O)NC(c1ccc(F)cc1)CC2(C)C` (stereo not shown) [Example 948, 5-(4-fluorophenyl)-2,7,7-trimethyl-4,5,6,7-tetrahydropyrazolo[1,5-a]pyrimidine-3-carboxylic acid], with 173 to 174 °C. Compound `Cc1nn2c(c1C(=O)O)NC(c1ccccc1)CC2(C)C` (single isomer, unassigned; (+)) [Example 1020, (+)-2,7,7-trimethyl-5-phenyl-4,5,6,7-tetrahydropyrazolo[1,5-a]pyrimidine-3-carboxylic acid] yielded a melting point of 190 to 192 °C. Compound `CCC1(CC)CC(c2ccccc2)Nc2c(C(=O)NC34CC5CC(CC(C5)C3)C4)cnn21` (stereo not shown) had a melting point of 213 to 214 °C. With `C#CC1(NC(=O)c2cnn3c2NC(c2ccccc2)CC3(C)C)CCCCC1` (stereo not shown) [Example 587, N-(1-ethynylcyclohexyl)-7,7-dimethyl-5-phenyl-4,5,6,7-tetrahydropyrazolo[1,5-a]pyrimidine-3-carboxamide], the melting point lay in the range of 201 to 202 °C. For `O=C(NC12CC3CC(CC(C3)C1)C2)c1cnn2c1NC(c1ccccc1)CC21CCCCC1` (stereo not shown) the value was 274 to 275 °C.

The compound `O=C(c1cnn2c1N[C@H](c1ccccc1)C[C@@H]2C(F)(F)F)N(C1CCCCC1)C1CCCCC1` (stereo in doubt) [Example 373, N,N-dicyclohexyl-5-phenyl-7-(trifluoromethyl)-4,5,6,7-tetrahydropyrazolo[1,5-a]pyrimidine-3-carboxamide] showed a melting point of 243 to 244 °C. Compound `CCC1(NC(=O)c2cnn3c2NC(c2ccccc2)CC3(C)C)CC[S+]([O-])CC1` (stereo not shown) [Example 623, N-(4-ethyl-1-oxidotetrahydro-2H-thiopyran-4-yl)-7,7-dimethyl-5-phenyl-4,5,6,7-tetrahydropyrazolo[1,5-a]pyrimidine-3-carboxamide] displayed a melting point of 172 to 173 °C. Regarding `O=C(CNC(=O)c1cnn2c1N[C@H](c1ccccc1)C[C@@H]2C(F)(F)F)c1ccccc1Cl` (stereo in doubt) [Example 289, N-(2-(2-chlorophenyl)-2-oxoethyl)-5-phenyl-7-(trifluoromethyl)-4,5,6,7-tetrahydropyrazolo[1,5-a]pyrimidine-3-carboxamide], the melting point is 154 to 155 °C. The compound `CCC(NC(=O)c1cnn2c1NC(c1ccccc1)CC2(C)C)c1ccccc1Br` (stereo not shown) [Example 416, N-(1-(2-bromophenyl)propyl)-7,7-dimethyl-5-phenyl-4,5,6,7-tetrahydropyrazolo[1,5-a]pyrimidine-3-carboxamide] yielded a melting point of 200 to 201 °C.
